Measurements as given in paper PMC4503722, “Novel Phenotypic Outcomes Identified for a Public Collection of Approved Drugs from a Publicly Accessible Panel of Assays” (PLoS ONE, 2015).
Like-named read-outs stand apart in the source and are kept apart here.

Legend:
[1] = test system: endothelial tube formation in co-cultures of ECFCs and ADSCs treated with VEGF; test: cells; assay type: cell-based, human
HeLa cells = test: cells; assay type: cell-based;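 on Hela CellCycMod PI 4N summarized IC50: value tracks stimulation of 4N DNA content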
hp70S6K1 (RPS6KB1) = target: T1, hp70S6K1 (RPS6KB1) (Homo sapiens, UniProt P23443); test: Cerep LANCE kinase assay hp70S6K1 (S1 assay 31); assay type: biochemical
T1 construct: purchased Cerep (LANCE kinase assay platform, contract assay)

hKDR = target: T2, hKDR (Homo sapiens, UniProt P35968); test: Cerep LANCE kinase assay hKDR (S1 assay 32); assay type: biochemical
T2 construct: purchased Cerep (LANCE kinase assay platform, contract assay)

hJAK2 = target: T3, hJAK2 (Homo sapiens, UniProt O60674); test: Cerep LANCE kinase assay hJAK2 (S1 assay 33); assay type: biochemical
T3 construct: purchased Cerep (LANCE kinase assay platform, contract assay)

hGSK3b = target: T4, hGSK3b (Homo sapiens, UniProt P49841); test: Cerep LANCE kinase assay hGSK3b (S1 assay 34); assay type: biochemical
T4 construct: purchased Cerep (LANCE kinase assay platform, contract assay)

hFLT3 = target: T5, hFLT3 (Homo sapiens, UniProt P36888); test: Cerep LANCE kinase assay hFLT3 (S1 assay 35); assay type: biochemical
T5 construct: purchased Cerep (LANCE kinase assay platform, contract assay)

[2] = test system: ECFC/ADSC co-culture cell nuclei number; settings: for IC50: read-out: VEGF_ADSC\ECFC Angio Hoechst NucArea summarized IC50
[3] = test system: nuclear β-catenin in C2C12 cells; test: cells; assay type: cell-based; settings: Mus musculus, C2C12, read-out: Wnt Pathway
INS-1E cells = test: cells; assay type: cell-based, rat; settings: Rattus norvegicus, INS-1E, read-out: Insulin Secretion
NCI-H716 cells = test: cells; assay type: cell-based, Human; settings: Homo sapiens, NCI-H716, read-out: GLP 1 Secretion
DLD-1 = test: cells; assay type: cell-based
HCT116 = test: cells; assay type: cell-based
[4] = test system: HCT116 cells treated with a GSK3β inhibitor; test: cells; assay type: cell-based
Colo320 = test: cells; assay type: cell-based
SW480 = test: cells; assay type: cell-based; settings: assay number 24; basal; read-out: Basal_Viability ATP SW480 summarized IC50
HT-29 = test: cells; assay type: cell-based; settings: assay number 28; basal; read-out: Basal_Viability ATP HT-29 summarized IC50
RKO = test: cells; assay type: cell-based; settings: assay number 29; basal; read-out: Basal_Viability ATP RKO summarized IC50
SNU-C1 = test: cells; assay type: cell-based; settings: assay number 30; basal; read-out: Basal_Viability ATP SNU-C1 summarized IC50
[5] = kinase assay, read-out: p70S6K1
[6] = read-out: VEGF_ADSC\ECFC Angio CD31 TubeArea summarized IC50
[7] = assay number 14, 2N, read-out: Hela CellCycMod PI 2N summarized IC50
[8] = assay number 15, S phase, read-out: Hela CellCycMod PI S Phase summarized IC50
[9] = assay number 16, 4N, read-out: Hela CellCycMod PI 4N summarized IC50
[10] = assay number 17, MI, read-out: Hela CellCycMod PI MI summarized IC50
[11] = assay number 18, cell number, read-out: Hela CellCycMod PI Cell Number summarized IC50
[12] = assay number 31, read-out: hp70S6K1 LANCE summarized IC50
[13] = assay number 33, read-out: hJAK2 LANCE summarized IC50
[14] = assay number 34, read-out: hGSK3b LANCE summarized IC50
[15] = assay number 35, read-out: hFLT3 LANCE summarized IC50

T5 sequence (P36888 27-993): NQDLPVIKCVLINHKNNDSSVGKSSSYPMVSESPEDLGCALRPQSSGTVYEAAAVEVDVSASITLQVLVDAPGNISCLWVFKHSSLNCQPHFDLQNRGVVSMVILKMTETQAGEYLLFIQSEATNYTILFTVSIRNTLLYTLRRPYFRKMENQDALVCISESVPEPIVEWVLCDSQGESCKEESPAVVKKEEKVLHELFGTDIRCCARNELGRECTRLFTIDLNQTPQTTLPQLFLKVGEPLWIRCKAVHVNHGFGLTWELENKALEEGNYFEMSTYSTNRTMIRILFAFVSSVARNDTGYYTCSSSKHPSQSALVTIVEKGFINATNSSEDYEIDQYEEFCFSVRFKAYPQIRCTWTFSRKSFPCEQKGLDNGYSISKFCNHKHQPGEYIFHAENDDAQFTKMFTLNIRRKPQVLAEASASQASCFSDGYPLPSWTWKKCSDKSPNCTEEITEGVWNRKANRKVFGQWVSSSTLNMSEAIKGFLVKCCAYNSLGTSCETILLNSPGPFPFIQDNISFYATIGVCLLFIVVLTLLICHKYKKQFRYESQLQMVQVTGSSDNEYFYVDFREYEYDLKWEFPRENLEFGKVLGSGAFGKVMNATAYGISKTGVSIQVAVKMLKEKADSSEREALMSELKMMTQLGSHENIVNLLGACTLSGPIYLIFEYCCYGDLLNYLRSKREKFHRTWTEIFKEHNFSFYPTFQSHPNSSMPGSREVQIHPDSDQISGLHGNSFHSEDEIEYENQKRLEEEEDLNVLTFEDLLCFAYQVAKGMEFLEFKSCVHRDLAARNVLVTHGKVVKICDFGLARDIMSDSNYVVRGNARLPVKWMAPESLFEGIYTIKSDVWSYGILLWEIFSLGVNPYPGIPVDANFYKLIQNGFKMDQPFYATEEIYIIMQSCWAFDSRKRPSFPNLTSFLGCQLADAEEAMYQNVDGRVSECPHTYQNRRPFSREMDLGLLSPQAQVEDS
T1 sequence (P23443 whole entry): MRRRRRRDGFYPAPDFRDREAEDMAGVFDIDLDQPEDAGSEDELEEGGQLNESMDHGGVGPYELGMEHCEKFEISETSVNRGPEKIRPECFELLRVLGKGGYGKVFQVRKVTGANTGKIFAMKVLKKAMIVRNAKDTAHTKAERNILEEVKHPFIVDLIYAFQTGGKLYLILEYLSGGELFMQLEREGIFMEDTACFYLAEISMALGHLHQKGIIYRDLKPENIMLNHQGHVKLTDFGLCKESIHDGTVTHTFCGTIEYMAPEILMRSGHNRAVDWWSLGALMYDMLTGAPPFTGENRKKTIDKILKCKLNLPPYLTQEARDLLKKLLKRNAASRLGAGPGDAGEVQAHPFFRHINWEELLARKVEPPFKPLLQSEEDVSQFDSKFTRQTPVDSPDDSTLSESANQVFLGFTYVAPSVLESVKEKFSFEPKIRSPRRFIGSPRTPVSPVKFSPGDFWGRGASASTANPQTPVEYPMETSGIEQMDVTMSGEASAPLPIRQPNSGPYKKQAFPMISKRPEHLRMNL
T3 sequence (O60674 whole entry): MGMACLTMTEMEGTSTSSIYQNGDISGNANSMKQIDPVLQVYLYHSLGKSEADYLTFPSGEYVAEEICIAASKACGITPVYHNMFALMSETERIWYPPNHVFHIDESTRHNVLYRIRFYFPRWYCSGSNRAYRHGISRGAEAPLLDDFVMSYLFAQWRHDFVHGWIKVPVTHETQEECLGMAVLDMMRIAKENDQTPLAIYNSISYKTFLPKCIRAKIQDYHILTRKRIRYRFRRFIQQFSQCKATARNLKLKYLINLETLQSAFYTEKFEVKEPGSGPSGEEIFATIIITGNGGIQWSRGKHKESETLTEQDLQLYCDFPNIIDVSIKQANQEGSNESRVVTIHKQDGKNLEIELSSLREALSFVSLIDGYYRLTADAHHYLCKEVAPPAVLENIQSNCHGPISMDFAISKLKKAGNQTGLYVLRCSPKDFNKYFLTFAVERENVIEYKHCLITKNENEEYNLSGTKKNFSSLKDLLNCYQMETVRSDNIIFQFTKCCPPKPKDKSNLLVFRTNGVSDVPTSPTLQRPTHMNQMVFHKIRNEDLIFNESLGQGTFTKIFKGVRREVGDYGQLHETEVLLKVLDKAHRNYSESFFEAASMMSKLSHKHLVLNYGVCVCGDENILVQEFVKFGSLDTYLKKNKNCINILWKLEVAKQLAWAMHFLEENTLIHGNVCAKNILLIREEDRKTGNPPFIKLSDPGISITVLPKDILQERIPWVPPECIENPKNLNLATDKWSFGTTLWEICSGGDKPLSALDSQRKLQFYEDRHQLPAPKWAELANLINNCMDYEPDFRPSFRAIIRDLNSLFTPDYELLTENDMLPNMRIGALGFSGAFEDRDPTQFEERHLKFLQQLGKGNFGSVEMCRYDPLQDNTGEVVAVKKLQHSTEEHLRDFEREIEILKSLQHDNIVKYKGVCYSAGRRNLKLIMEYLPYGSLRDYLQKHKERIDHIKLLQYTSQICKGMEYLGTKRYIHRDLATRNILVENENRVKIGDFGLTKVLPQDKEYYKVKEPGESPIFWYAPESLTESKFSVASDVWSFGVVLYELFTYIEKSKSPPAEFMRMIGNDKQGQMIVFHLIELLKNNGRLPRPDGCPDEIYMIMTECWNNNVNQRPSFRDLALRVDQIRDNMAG
T2 sequence (P35968 20-1356): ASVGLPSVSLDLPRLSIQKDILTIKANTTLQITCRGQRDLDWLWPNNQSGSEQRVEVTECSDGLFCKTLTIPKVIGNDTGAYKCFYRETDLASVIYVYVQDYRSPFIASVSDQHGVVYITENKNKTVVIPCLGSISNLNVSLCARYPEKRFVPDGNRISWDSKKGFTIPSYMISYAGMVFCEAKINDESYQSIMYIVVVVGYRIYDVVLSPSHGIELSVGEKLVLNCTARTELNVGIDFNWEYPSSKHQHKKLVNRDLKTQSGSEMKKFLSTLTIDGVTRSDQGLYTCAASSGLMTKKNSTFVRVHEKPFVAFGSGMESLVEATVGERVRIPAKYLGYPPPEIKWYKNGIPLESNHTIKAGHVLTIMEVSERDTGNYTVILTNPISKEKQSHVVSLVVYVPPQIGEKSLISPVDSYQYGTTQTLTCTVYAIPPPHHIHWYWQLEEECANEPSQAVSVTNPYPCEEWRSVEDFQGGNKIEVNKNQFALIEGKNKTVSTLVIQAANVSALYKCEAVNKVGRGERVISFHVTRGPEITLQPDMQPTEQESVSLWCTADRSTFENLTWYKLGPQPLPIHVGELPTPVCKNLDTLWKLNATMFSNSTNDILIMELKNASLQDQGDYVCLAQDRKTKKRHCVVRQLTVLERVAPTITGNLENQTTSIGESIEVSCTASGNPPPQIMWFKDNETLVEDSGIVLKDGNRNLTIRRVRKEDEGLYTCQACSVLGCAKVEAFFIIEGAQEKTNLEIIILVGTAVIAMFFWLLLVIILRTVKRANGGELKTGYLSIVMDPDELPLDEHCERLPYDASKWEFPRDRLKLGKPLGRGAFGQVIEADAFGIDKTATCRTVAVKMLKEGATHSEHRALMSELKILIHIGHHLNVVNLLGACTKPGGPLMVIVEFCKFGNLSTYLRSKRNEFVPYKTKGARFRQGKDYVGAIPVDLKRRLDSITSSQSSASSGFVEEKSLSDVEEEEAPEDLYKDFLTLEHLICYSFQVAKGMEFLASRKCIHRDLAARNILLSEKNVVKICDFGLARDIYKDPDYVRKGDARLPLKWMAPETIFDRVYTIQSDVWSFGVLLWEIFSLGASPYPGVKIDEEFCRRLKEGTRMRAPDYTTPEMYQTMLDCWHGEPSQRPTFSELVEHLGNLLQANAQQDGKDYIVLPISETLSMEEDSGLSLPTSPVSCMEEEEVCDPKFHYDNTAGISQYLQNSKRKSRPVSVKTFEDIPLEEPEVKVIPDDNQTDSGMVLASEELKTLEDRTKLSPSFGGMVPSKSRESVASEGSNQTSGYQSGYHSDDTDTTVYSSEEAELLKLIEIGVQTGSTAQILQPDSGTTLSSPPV
T4 sequence (P49841 whole entry): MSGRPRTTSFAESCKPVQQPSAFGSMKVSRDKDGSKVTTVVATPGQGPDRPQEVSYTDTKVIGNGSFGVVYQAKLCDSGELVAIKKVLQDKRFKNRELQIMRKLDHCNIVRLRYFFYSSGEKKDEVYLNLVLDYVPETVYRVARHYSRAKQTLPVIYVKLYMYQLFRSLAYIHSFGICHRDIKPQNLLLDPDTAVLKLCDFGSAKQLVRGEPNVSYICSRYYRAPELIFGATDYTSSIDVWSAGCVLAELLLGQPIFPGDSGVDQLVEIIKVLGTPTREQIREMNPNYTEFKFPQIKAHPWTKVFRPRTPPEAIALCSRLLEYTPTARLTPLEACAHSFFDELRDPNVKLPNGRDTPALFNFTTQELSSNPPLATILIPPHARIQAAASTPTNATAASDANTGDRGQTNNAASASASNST

C[C@@H]1C[C@@H]([C@H](O)CC2CC(=O)NC(=O)C2)C(=O)[C@@H](C)C1 [NCGC00169964-05]
VEGF_ADSC\ECFC Angio CD31 TubeArea IC50/EC50 [1]: 1.1486 µM | Hela CellCycMod PI 2N IC50/EC50 (HeLa cells; assay number 14, 2N): > 10 µM | Hela CellCycMod PI 4N IC50/EC50 (HeLa cells; assay number 16, 4N): > 10 µM | Hela CellCycMod PI MI IC50/EC50 (HeLa cells; assay number 17, MI): > 10 µM | Hela CellCycMod PI Cell Number IC50/EC50 (HeLa cells; assay number 18, cell number): 0.5421 µM | hp70S6K1 LANCE IC50/EC50 (hp70S6K1 (RPS6KB1); assay number 31): > 20 µM | hKDR LANCE IC50/EC50 (hKDR; assay number 32): > 20 µM | hJAK2 LANCE IC50/EC50 (hJAK2; assay number 33): > 20 µM | hGSK3b LANCE IC50/EC50 (hGSK3b; assay number 34): > 20 µM | hFLT3 LANCE IC50/EC50 (hFLT3; assay number 35): > 20 µM | VEGF_ADSC\ECFC Angio Hoechst NucArea IC50/EC50 [2]: > 10 µM

COc1cc2c(c(OC)c1OC)-c1ccc(OC)c(=O)cc1[C@@H](NC(C)=O)CC2 [colchicine]
IC50 (hp70S6K1 (RPS6KB1)): > 20 µM | IC50 (hKDR): > 20 µM | IC50 (hJAK2): > 20 µM | IC50 (hGSK3b): > 20 µM | IC50 (hFLT3): > 20 µM

O=C(Nc1ccc([N+](=O)[O-])cc1Cl)c1cc(Cl)ccc1O [Niclosamide]
IC50 ([1]; Homo sapiens, read-out: Anti-Angiogenesis): 0.112 µM | EC50 [3]: 1.57 µM | EC50 (INS-1E cells): > 10 µM | EC50 (NCI-H716 cells): > 10 µM | EC50 (HeLa cells; Homo sapiens, HeLa, read-out: CellCycle G2/M): > 10 µM | IC50 (DLD-1; Homo sapiens, DLD-1, read-out: Basal_Viability ATP DLD-1): 0.00349 µM | IC50 (HCT116; Homo sapiens, HCT-116, read-out: Basal_Viability ATP HCT116): 0.00144 µM | IC50 ([4]; Homo sapiens, HCT-116, read-out: GSK3b inh pretreated_Viability ATP HCT116): 0.00295 µM | IC50 (Colo320; Homo sapiens, COLO 320, read-out: Basal_Viability ATP Colo 320): 0.00826 µM | IC50 (hp70S6K1 (RPS6KB1); [5]): > 20 µM | IC50 (hKDR): > 20 µM | IC50 (hGSK3b; kinase assay, read-out: GSK3b): > 20 µM | IC50 (hFLT3; kinase assay, read-out: FLT3): > 20 µM

COc1cc([C@@H]2c3cc4c(cc3[C@H](O)[C@H]3COC(=O)[C@H]23)OCO4)cc(OC)c1OC [NCGC00022001-13]
IC50 [1, 6]: 0.0081 µM | IC50 (HeLa cells; [7]): 0.0089 µM | IC50 (HeLa cells; [8]): > 10 µM | IC50 (HeLa cells; [9]): 0.0077 µM | IC50 (HeLa cells; [10]): 0.0112 µM | IC50 (HeLa cells; [11]): 0.0048 µM | IC50 (hp70S6K1 (RPS6KB1); [12]): > 20 µM | IC50 (hKDR; assay number 32, read-out: hKDR LANCE summarized IC50): > 20 µM | IC50 (hJAK2; [13]): > 20 µM | IC50 (hGSK3b; [14]): > 20 µM | IC50 (hFLT3; [15]): > 20 µM | IC50 [2]: > 10 µM

O=C(CCCCCCC(=O)Nc1ccccc1)NO [vorinostat]
IC50 (hp70S6K1 (RPS6KB1); [5]): > 20 µM | IC50 (hKDR): > 20 µM | IC50 (hJAK2; kinase assay, read-out: JAK2): > 20 µM | IC50 (hGSK3b; kinase assay, read-out: GSK3b): > 20 µM | IC50 (hFLT3; kinase assay, read-out: FLT3): > 20 µM

Oc1c(Cl)cc(Cl)cc1Sc1cc(Cl)cc(Cl)c1O [NCGC00018163-10]
IC50 [1, 6]: 1.79 µM | IC50 (HeLa cells; [7]): > 10 µM | IC50 (HeLa cells; [8]): > 10 µM | IC50 (HeLa cells; [9]): > 10 µM | IC50 (HeLa cells; [10]): > 10 µM | IC50 (HeLa cells; [11]): > 10 µM | IC50 (DLD-1; assay number 23, basal, read-out: Basal_Viability ATP DLD-1 summarized IC50): 0.001 µM | IC50 (SW480): 0.001 µM | IC50 (HCT116; assay number 25, basal, read-out: Basal_Viability ATP HCT116 summarized IC50): 0.001 µM | IC50 ([4]; assay number 26, GSK3b inhibitor pretreated, read-out: GSK3b inh pretreated_Viability ATP HCT116 summarized IC50): 0.001 µM | IC50 (Colo320; assay number 27, basal, read-out: Basal_Viability ATP Colo 320 summarized IC50): 0.015 µM | IC50 (HT-29): 0.996 µM | IC50 (RKO): 0.001 µM | IC50 (SNU-C1): 0.00867 µM | IC50 (hp70S6K1 (RPS6KB1); [12]): > 20 µM | IC50 (hJAK2; [13]): > 20 µM | IC50 (hGSK3b; [14]): 6.57 µM | IC50 (hFLT3; [15]): > 20 µM | IC50 [2]: > 10 µM
